The values that follow are results of earlier work, collected in US20050201943A1, “Magnetic resonance imaging using contrast agents bioactivated by enzymatic cleavage” (Epix Medical, Inc.,. a Delaware corporation, priority 2000, published 2005).

What is called Km is the concentration of substrate that gives half-maximal velocity. The kcat is the number of substrate molecules converted per active site and unit of time at saturation.

Series [1] addresses human serum albumin (HSA) (Homo sapiens, UniProt P02768). Conditions: bound to HSA versus unbound in aqueous solution.
Another series has as its target T1, TAFI (Homo sapiens, UniProt Q96IY4).
T1 sequence (Q96IY4 115-423): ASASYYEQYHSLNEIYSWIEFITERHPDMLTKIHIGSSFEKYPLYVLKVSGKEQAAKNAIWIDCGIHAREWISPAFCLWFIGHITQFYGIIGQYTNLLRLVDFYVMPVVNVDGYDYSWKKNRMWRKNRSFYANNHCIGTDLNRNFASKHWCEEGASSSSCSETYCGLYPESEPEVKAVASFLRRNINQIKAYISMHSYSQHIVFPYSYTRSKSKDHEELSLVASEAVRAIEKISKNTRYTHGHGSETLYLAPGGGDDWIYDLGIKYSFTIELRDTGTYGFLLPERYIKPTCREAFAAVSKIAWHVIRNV
The settings on record: other TAFI substrate, given for comparison.

Residues, ends and D or L forms follow the SMILES beside them. *: point of attachment. Bz = O=C(c1ccccc1)*

Sequence of human serum albumin (HSA) (P02768 25-609): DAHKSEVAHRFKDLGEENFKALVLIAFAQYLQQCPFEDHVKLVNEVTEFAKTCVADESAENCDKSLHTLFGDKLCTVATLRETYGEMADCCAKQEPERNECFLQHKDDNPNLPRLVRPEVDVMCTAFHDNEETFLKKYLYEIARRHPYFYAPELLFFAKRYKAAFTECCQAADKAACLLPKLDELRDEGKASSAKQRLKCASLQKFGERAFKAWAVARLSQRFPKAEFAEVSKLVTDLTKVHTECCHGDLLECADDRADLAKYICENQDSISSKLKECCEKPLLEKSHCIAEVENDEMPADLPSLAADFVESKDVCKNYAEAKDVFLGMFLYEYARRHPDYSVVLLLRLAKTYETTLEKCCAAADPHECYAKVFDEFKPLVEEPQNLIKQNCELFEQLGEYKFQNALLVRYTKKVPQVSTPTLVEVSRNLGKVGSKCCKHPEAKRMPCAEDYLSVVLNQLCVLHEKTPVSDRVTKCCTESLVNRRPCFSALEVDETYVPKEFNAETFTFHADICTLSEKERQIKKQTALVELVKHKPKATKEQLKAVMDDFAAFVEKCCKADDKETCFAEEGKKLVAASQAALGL

Regarding `O=C([O-])CN(CCN(CC(=O)[O-])C[C@H](COP(=O)([O-])OC1CCC(c2ccccc2)(c2ccccc2)CC1)N(CC(=O)[O-])CC(=O)[O-])CC(=O)[O-].[Gd+3].[H+].[H+].[H+]` [MS-325], the “increase in relaxivity of the protein-bound form compared to the unbound contrast agent” value in series [1] is on record as “seven to eight times”.

For the molecule `N=C(N)NCCC[C@H](NC(=O)CNC(=O)c1ccccc1)C(=O)O` [hippuryl arginine] (Bz-Gly-Arg-OH), at TAFI, the Km is 140 µM and the kcat was 21 s⁻¹.
